Results published in patent publication US20230348978A1, “TREATMENT OF ALZHEIMER'S DISEASE” (SELONTERRA, INC., priority 2020, published 2023).

System: E4E4 neurons
Assay: qPCR gene expression in E4E4 neurons treated with GPR4 agonist
Format: cell-based, human
Conditions: six hours, vs E4E4 vehicle-treated neurons
Text: Example 1: Cultivation of human isogenic neurons carrying either the homozygous APOE4 genotype (E4E4) or the homozygous APOE3 genotype (E3E3). Commercially available human isogenic neurons were acquired from Fujifilm Cellular Dynamics Inc. The homozygous APOE4 genotype (E4E4) neurons were designated DDP-NRC-1× 01434.779 and herein they are referred to as E4E4 neurons. The homozygous APOE3 genotype (E3E3) neurons were designated R1013 and herein they are referred to as E3E3 neurons. The neurons were plated and cultivated in 96-well plates. Prior to plating of neurons, the manufacturer supplied complete maintenance medium was prepared and stored at 4 degrees Celsius. The 96-well plates were double coated with poly-L-ornithin (PLO Sigma; P4957) and laminin (Sigma; L2020) by first coating the wells with poly-L-ornithin overnight at 4 degrees Celsius. Wells were rinsed with phosphate-buffered saline and then laminin diluted in phosphate-buffered saline at a concentration of 10 micrograms/milliliter was added for three hours. Complete maintenance medium was equilibrated to room temperature. Neurons were thawed for three minutes in a 37 degrees Celsius water bath. The content of the vial was transferred to a 50 ml conical tube by adding one milliliter of room-temperature equilibrated complete maintenance medium and suspending the neurons. The neuron suspension was transferred to the 50 ml conical tube. This neuron suspension was further diluted by addition of eight milliliter of complete maintenance medium. A viable neuron count was performed and the neurons were plated into individual wells of a 96-well plate at a neuronal seed density of 125,000 neurons per cm^2. The E3E3 and the E4E4 containing 96-well plates were transferred into a cell incubator and incubated at 37 degrees Celsius and 5% CO2. E3E3 and E4E4 neurons plated in this way were allowed to attach to the wells of the 96-well plate for 24 hours at which time a 100% medium change to fresh complete maintenance medium was performed. The E3E3 and E4E4 neurons were then continued to be cultivated at 37 degrees Celsius and 5% CO2. On Day 5 after plating a 50% medium change was performed by removal of 50% of the cell supernatant and addition of the same volume of fresh complete maintenance medium and then the 96-well plates were continued to be cultivated at 37 degrees Celsius and 5% CO2. On Day 9 after plating, a 50% medium change was performed by removal of 50% of the cell supernatant and addition of the same volume of fresh complete maintenance medium. This medium change was performed before neurons were treated with compounds on Day 9 after plating.
Example 2: Treatment of E4E4 neurons with the exemplary GPR4 agonist SLC2004 and vehicle and E3E3 neurons with vehicle. E4E4 and E3E3 neurons were plated and cultivated in individual wells of a 96-well plate as described in Example 1. The compound spingosylphosphorylcholine (SLC2004) (Sigma; S4257) is a lyophilized powder with a white to yellow appearance and a molecular weight of 464.62 Dalton. A fresh stock solution of SLC2004 was prepared in methanol as vehicle at a stock concentration of 300 millimolar. This stock solution was further diluted to yield two 21-fold concentrated solutions of the intended in-well concentrations. For one of the 21-fold concentrated SLC2004 solution, a final SLC2004 in-well concentration of 3 micromolar was achieved by adding 10 microliters of this 21-fold concentrated SLC2004 solution to 200 microliters of complete maintenance medium in each well of the 96-well plate. For the second 21-fold concentrated SLC2004 solution, a final SLC2004 in-well concentration of 10 micromolar was achieved by adding 10 microliters of this 21-fold concentrated SLC2004 solution to 200 microliters of complete maintenance medium in each well of the 96-well plate. All wells with SLC2004-treated neurons contained the same amount of 0.01% methanol in complete maintenance medium. […]

CCCCCCCCCCCCC/C=C/[C@@H](O)[C@@H](N)COP(=O)([O-])OCC[N+](C)(C)C [SLC2004, sphingosylphosphorylcholine]
expression of CCND3 (3 micromolar): upregulated
expression of ITGB3 (3 micromolar): downregulated
expression of VCL (3 micromolar): upregulated
expression of BDNF (10 micromolar): upregulated
expression of CTGF (10 micromolar): upregulated
expression of YAP1 (10 micromolar): upregulated
